We go through 4 molecules from publication PMC3628895, “Cloning, expression and characterization of an ethanol tolerant GH3 β-glucosidase from Myceliophthora thermophila” (PeerJ, 2013).

The term Ki denotes a dissociation constant, usually derived from enzyme kinetics or from competition with a known ligand. The low end stands for tighter binding, the high end for weaker binding. As a reminder, the Km is the substrate concentration at which the rate is half of its maximum.

Where two headings read alike, the source gives them in different places.

The target of one data set is T1, MtBgl3a (Thermothelomyces thermophilus, UniProt G2QDN2).
T1 construct: gene MYCTH_66804
T1 sequence (G2QDN2 18-733): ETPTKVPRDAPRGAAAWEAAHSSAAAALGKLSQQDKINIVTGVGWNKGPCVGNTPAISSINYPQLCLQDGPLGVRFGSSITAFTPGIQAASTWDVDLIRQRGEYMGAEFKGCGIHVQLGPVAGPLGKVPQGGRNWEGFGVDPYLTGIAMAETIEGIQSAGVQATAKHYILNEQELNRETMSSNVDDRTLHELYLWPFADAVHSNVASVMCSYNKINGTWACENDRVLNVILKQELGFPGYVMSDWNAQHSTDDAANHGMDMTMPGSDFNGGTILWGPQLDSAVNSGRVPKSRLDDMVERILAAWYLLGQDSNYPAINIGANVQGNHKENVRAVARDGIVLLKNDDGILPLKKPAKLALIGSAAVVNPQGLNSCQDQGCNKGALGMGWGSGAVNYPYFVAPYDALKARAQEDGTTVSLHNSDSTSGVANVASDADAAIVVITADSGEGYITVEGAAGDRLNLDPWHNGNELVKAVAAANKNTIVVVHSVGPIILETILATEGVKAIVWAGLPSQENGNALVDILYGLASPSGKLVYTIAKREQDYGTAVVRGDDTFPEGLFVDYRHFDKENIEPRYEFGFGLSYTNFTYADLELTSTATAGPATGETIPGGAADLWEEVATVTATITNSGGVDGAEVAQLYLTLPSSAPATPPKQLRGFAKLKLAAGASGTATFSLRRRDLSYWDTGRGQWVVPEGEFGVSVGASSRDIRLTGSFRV
Description: p-nitrophenol release, absorbance […] nm; Michaelis-Menten fit (GraFit). The data set is classed as biochemical.

Substrate in the data set “purified protein”: O=[N+]([O-])c1ccc(O[C@@H]2O[C@H](CO)[C@@H](O)[C@H](O)[C@H]2O)cc1
In words: purified protein. As to conditions: 100 mM citrate-phosphate pH 5.0, 40 °C.

Where [1] appears, read: competitive, substrate p-β-NPG, pH 5.0 citrate-phosphate.

The molecule `O=C(O)[C@H](O)[C@@H](O)[C@H](O)[C@H](O)CO` [D-gluconic acid] gave a Ki at MtBgl3a of 22 ± 2 µM. Molecule `OC[C@H]1OC(O)[C@H](O)[C@@H](O)[C@@H]1O` (stereo partly drawn) [D-glucose] came in with a Ki at MtBgl3a (setting [1]) of 282 ± 100 µM.

In the case of `OC1OC[C@@H](O)[C@H](O)[C@H]1O` (stereo partly drawn) [D-xylose], the affinity at MtBgl3a (setting [1]), expressed as Ki, was 30 ± 5 µM.

B1: MtBgl3a (Thermothelomyces thermophilus ATCC 42464) (protein)
chain: ETPTKVPRDAPRGAAAWEAAHSSAAAALGKLSQQDKINIVTGVGWNKGPCVGNTPAISSINYPQLCLQDGPLGVRFGSSITAFTPGIQAASTWDVDLIRQRGEYMGAEFKGCGIHVQLGPVAGPLGKVPQGGRNWEGFGVDPYLTGIAMAETIEGIQSAGVQATAKHYILNEQELNRETMSSNVDDRTLHELYLWPFADAVHSNVASVMCSYNKINGTWACENDRVLNVILKQELGFPGYVMSDWNAQHSTDDAANHGMDMTMPGSDFNGGTILWGPQLDSAVNSGRVPKSRLDDMVERILAAWYLLGQDSNYPAINIGANVQGNHKENVRAVARDGIVLLKNDDGILPLKKPAKLALIGSAAVVNPQGLNSCQDQGCNKGALGMGWGSGAVNYPYFVAPYDALKARAQEDGTTVSLHNSDSTSGVANVASDADAAIVVITADSGEGYITVEGAAGDRLNLDPWHNGNELVKAVAAANKNTIVVVHSVGPIILETILATEGVKAIVWAGLPSQENGNALVDILYGLASPSGKLVYTIAKREQDYGTAVVRGDDTFPEGLFVDYRHFDKENIEPRYEFGFGLSYTNFTYADLELTSTATAGPATGETIPGGAADLWEEVATVTATITNSGGVDGAEVAQLYLTLPSSAPATPPKQLRGFAKLKLAAGASGTATFSLRRRDLSYWDTGRGQWVVPEGEFGVSVGASSRDIRLTGSFRV
Consider B1, for which, in the data set “purified protein”, the Km is 0.39 ± 0.12 mM.
